Among the data in the supplement of paper PMC4862054 are normalised viability values, retold here.

What all share (experiment): normalised viability (% of control), CellTiter-Blue; higher = more viable cells (about 100 = DMSO control)
Holding throughout (details): incubation time: 72 h
On the technique in general: The colour change of resazurin is a common sign of viable cells or microbes.

In one test the test system is DU-4475. Here is the method:
(§1)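 DSRT, CellTiter-Blue viability, 72 h incubation. Signal is normalised to DMSO and benzethonium chloride controls. Value is the normalised response at dose 6.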

Test [1] relates to CAL-148. Here is the method: as §1
In test [2] the test system is MDA-MB-453. Here is the method:
as §1

The test system of test [3] is CAL-85-1. Here is the method: as §1
In test [4] the test system is HDQ-P1. Here is the method: as §1
The test system of test [5] is CAL-51. As to the method:
as §1

Test [6] concerns CAL-148. Here is the method: (§2)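 DSRT, CellTiter-Blue viability, 72 h incubation. Signal is normalised to DMSO and benzethonium chloride controls. Value is the normalised response at dose 8.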
The source holds these as a separate data set.

Test [7] relates to MDA-MB-453. As to the method:
as §2
The source holds these as a separate data set.

Test [8] relates to CAL-85-1. Here is the method: as §2
The source holds these as a separate data set.

In test [9] the test system is HDQ-P1. Here is the method: as §2
The source holds these as a separate data set.

Test [10] relates to CAL-51. As to the method: as §2
The source holds these as a separate data set.

Values joined by “and” are separate entries in the source; they are usually repeats but may differ in a detail not shown here. Equal values may be shown once.

With `Cc1c(N)nc([C@H](CC(N)=O)NC[C@H](N)C(N)=O)nc1C(=O)N[C@H](C(=O)N[C@H](C)[C@@H](O)[C@H](C)C(=O)N[C@H](C(=O)NCCc1nc(-c2nc(C(=O)NCCC[S+](C)C)cs2)cs1)[C@@H](C)O)[C@@H](OC1OC(CO)C(O)C(O)C1OC1OC(CO)C(O)C(OC(N)=O)C1O)c1cnc[nH]1` (stereo not given in full) [Bleomycin] (300 nM), the normalised viability was 107% with DU-4475; 81.5% with CAL-148 [1]; 102% in the test with MDA-MB-453 [2]; 92.5% with CAL-85-1 [3]; 72.9% in the test on HDQ-P1 [4]; 90.9% in the test with CAL-51 [5].

As for `Cc1cc2c(F)c(Oc3ncnn4cc(OC[C@@H](C)O)c(C)c34)ccc2[nH]1` [Brivanib] (30 nM), the normalised viability in the test with DU-4475 is 109%; in the test with CAL-148 [1] it was 92.6%; in the test on MDA-MB-453 [2], 85.4%; with CAL-85-1 [3], 91.7%; in the test with HDQ-P1 [4], 65.1%; in the test with CAL-51 [5] it was 91.9%.

For the compound `CCCCCOC(=O)Nc1nc(=O)n([C@@H]2O[C@H](C)[C@@H](O)[C@H]2O)cc1F` [Capecitabine] (300 nM), the normalised viability in the test on CAL-148 [1] was 98% and 94.3%; in the test on MDA-MB-453 [2] it was 108% and 94.3%; in the test with CAL-85-1 [3] it was 92.1% and 98.6%; with HDQ-P1 [4], 62.7% and 83.6%; in the test with CAL-51 [5], 103% and 96.5%.

As to `CCCCCOC(=O)Nc1nc(=O)n([C@@H]2O[C@H](C)[C@@H](O)[C@H]2O)cc1F` [Capecitabine] (3000 nM), the normalised viability in the test with CAL-148 [6] is 98.8% and 92.8%; in the test with MDA-MB-453 [7], 95.7% and 93.7%; in the test with CAL-85-1 [8], 82.3% and 95.4%; in the test on HDQ-P1 [9] it was 89.4% and 86.4%; with CAL-51 [10], 109% and 96%.

As for `CC(C)C[C@H](NC(=O)[C@H](CCc1ccccc1)NC(=O)CN1CCOCC1)C(=O)N[C@@H](Cc1ccccc1)C(=O)N[C@@H](CC(C)C)C(=O)[C@@]1(C)CO1` [Carfilzomib] (30 nM), the normalised viability was 8.97% with DU-4475; 40.8% in the test with CAL-148 [1]; 19.8% in the test on MDA-MB-453 [2]; 9.23% in the test with CAL-85-1 [3]; 1.01% in the test on HDQ-P1 [4]; 32.1% in the test with CAL-51 [5].

Regarding `Nc1nc(Cl)nc2c1ncn2[C@@H]1O[C@H](CO)[C@@H](O)[C@@H]1F` [Clofarabine] (300 nM), the normalised viability came out at 77% in the test with DU-4475; 68.7% in the test on CAL-148 [1]; 82.9% with MDA-MB-453 [2]; 65.1% in the test on CAL-85-1 [3]; 70.1% in the test with HDQ-P1 [4]; 81.9% in the test on CAL-51 [5].

In the case of `CCN(CC)CCOc1ccc(C(=C(Cl)c2ccccc2)c2ccccc2)cc1` [Clomifene] (300 nM), the normalised viability in the test with DU-4475 came out at 90.6%; with CAL-148 [1] it was 99.2%; in the test on MDA-MB-453 [2] it was 93.9%; in the test on CAL-85-1 [3], 102%; in the test on HDQ-P1 [4] it was 105%; with CAL-51 [5] it was 91.6%.

Take `C[C@@H]1C[C@H]2[C@@H]3CCC4=CC(=O)C=C[C@]4(C)[C@@]3(F)[C@@H](O)C[C@]2(C)[C@@]1(O)C(=O)CO` [Dexamethasone] (300 nM): the normalised viability in the test on DU-4475 came out at 99%; in the test on CAL-148 [1], 105%; in the test with MDA-MB-453 [2], 73.7%; in the test with CAL-85-1 [3] it was 99.3%; in the test with HDQ-P1 [4] it was 69.5%; with CAL-51 [5], 99.4%.

`C[C@@H](CN1CC(=O)NC(=O)C1)N1CC(=O)NC(=O)C1` [Dexrazoxane] (300 nM): the normalised viability was 108% with DU-4475; 83.5% in the test with CAL-148 [1]; 97.6% in the test with MDA-MB-453 [2]; 95.4% in the test on CAL-85-1 [3]; 82.2% in the test on HDQ-P1 [4]; 95% in the test on CAL-51 [5].

For `CC(C)C(=O)Nc1ccc([N+](=O)[O-])c(C(F)(F)F)c1` [Flutamide] (300 nM), the normalised viability in the test on DU-4475 is 113%; with CAL-148 [1], 104%; with MDA-MB-453 [2], 108%; in the test with CAL-85-1 [3], 98.3%; with HDQ-P1 [4] it was 93.6%; in the test on CAL-51 [5] it was 105%.

For `COc1cc2c(Oc3ccc(NC(=O)C4(C(=O)Nc5ccc(F)cc5)CC4)cc3F)ccnc2cc1OCCCN1CCOCC1` [Foretinib] (30 nM), the normalised viability in the test with DU-4475 was determined as 84.3%; in the test with CAL-148 [1], 95.1%; in the test with MDA-MB-453 [2], 94.1%; with CAL-85-1 [3], 89.2%; with HDQ-P1 [4], 59.1%; in the test on CAL-51 [5] it was 93.3%.

For the compound `NC(=O)NO` [Hydroxyurea] (3000 nM), the normalised viability in the test with DU-4475 is 91.3%; in the test with CAL-148 [1], 108%; in the test on MDA-MB-453 [2] it was 109%; in the test on CAL-85-1 [3], 110%; in the test with HDQ-P1 [4], 91.3%; in the test with CAL-51 [5], 103%.
